Laboratory results published in patent publication US7183112B2, “Uses for anti-malarial therapeutic agents” (APT Pharmaceuticals, LLC, priority 1999, dated 2007).
Several values for one entry are separate records, joined by “and”; a condition that tells them apart may be missing. Equal values may be shown once. Marks after values point to notes of the source that are not given here.

System: Ascaris-sensitized sheep
Test: Antigen-induced specific lung resistance (baseline, peak EAR, peak LAR), Example 3
Format: in vivo
Details: for EAR (peak, largest specific lung resistance 0–4 h) / LAR (peak, largest specific lung resistance 5–8 h): mean ± SE, n = 3 sheep
From the text: All procedures were approved by the Mount Sinai Medical Center Animal Research Committee, which is responsible for assuring the humane care and use of experimental animals. […] During the chronic treatment trail, venous blood samples were obtained from the external jugular vein for the determination of plasma compound concentrations. Samples were obtained as baseline (pre-dosing), and, then, before dosing on days 8, 15, 22, 29 and after dosing had stopped on day 43. Measurement of Airway Mechanics: The unsedated sheep were restrained in a cart in the prone position with their heads immobilized. After topical anesthesia of the nasal passages with 2%-lidocaine solution, a balloon catheter was advanced through one nostril into the lower esophagus. The animals were […] with a cuffed endotracheal tube through the other nostril using a flexible fiberoptic bronchoscope as a guide. (The cuff of the endotracheal tube was inflated only for the measurement of airway mechanics and during aerosol challenges to prevent undue discomfort. This procedure has no-effect on airway mechanics). Pleural pressure was estimated with the esophageal balloon catheter (filled with one ml of air) which was positioned 5–10 cm from the gastroesophageal junction. In this position, the end expiratory pleural pressure ranged between -2 and -5 cm H2O. Once the balloon was placed, it was secured so that it remained in position for the duration of the experiment. Lateral pressure in the trachea was measured with a sidehole catheter (inner dimension, 2.5 mm) advanced through and positioned distal to the tip of the endotracheal tube. Transpulmonary pressure, the difference between tracheal and pleural pressure, was measured with a differential pressure transducer catheter system. For the measurement of pulmonary resistance (RL), the proximal end of the endotracheal tube was connected to a pneumotachograph. The signals of flow and transpulmonary pressure were recorded on a n oscilloscope recorder which was linked to a computer for on-line calculation of RL from transpulmonary pressure, respiratory volume (obtained by digital integration) and flow. Analysis of 5–10 breaths were used for the determination of RL. Immediately after the measurements of RL, thoracic gas volume (Vtg) was measured in a constant volume body plethysmograph to obtain specific lung resistance (SRL=RL·Vtg) in cm H2O·sec^−1. Aerosol Delivery Systems: Aerosols of Ascaris suum extract (diluted 20:1 with phosphate buffered saline; 82,000 PNU/ml) were generated using a disposable medical nebulizer (Raindrop^R, Puritan Bennett), which produces an aerosol with a mass median aerodynamic diameter of 3.2 μm (geometric standard deviation, 1.9) as determined by a 7 stage Andersen cascade impactor. The output from the nebulizer was directed into a plastic T-piece, one end of which was connected to the inspiratory port of a Harvard respirator. To better control aerosol delivery, a dosimeter consisting of a solenoid valve and a source of compressed air (20 psi) was activated at the beginning of the inspiratory cycle of the Harvard respirator system for 1 second. The aerosol was delivered at a tidal volume of 500 ml and a rate of 20 breaths per minute for 20 minutes. Each sheep was challenged with an equivalent dose of antigen (400 breaths) in the control and drug trials. Carbachol aerosols were also generated with this same nebulizer system. The same basic protocol was used for all studies in Example 3. This basic protocol consisted of first obtaining baseline dose response curves to aerosol carbachol 1–3 days prior to antigen challenge. Then, on the day of antigen challenge, values of specific lung resistance (SRL) were measured at baseline and, then, 30 min after drug or vehicle (0.9% saline) treatment. The animals were, then, challenged with Ascaris suum antigen and SRL was remeasured immediately after challenge, hourly from 1–6 h after challenge and on the half-hour from 6 ½–8 h after challenge. […]

[1] = No Treatment 14d after stopping aerosol 2 mg/kg/d x 28 d
[2] = No Treatment 28d after stopping aerosol 2 mg/kg/d x 28 d
[3] = aerosol 0.2 mg/kg once a day x 4 d
[4] = aerosol 0.6 mg/kg once a day x 4 d
[5] = aerosol 1 mg/kg twice a day for 4 days
[6] = aerosol 1 mg/kg twice a day x 4 d
[7] = aerosol 2 mg/kg once a day for 4 days
[8] = aerosol 2 mg/kg once a day x 4 d
[9] = aerosol 2 mg/kg once a day x 14 d
[10] = aerosol 2 mg/kg once a day x 28 d
[11] = chronic treatment, aerosol 2 mg/kg once a day for up to 4 weeks
[12] = dose response, aerosol 0.2, 0.6 and 2 mg/kg once a day for 4 days
[13] = p.o. 1 mg/kg twice a day for 4 days

CCN(CCO)CCCC(C)Nc1ccnc2cc(Cl)ccc12 (stereo not drawn) [HCQ, hydroxychloroquine]
effect on LAR and AHR after stopping treatment (2 weeks after stopping 4 weeks aerosol 2 mg/kg once a day): carryover effect
response to allergen after stopping treatment (2 weeks after stopping aerosol 1 mg/kg twice a day for 4 days): responded normally
response to allergen after stopping treatment (2 weeks after stopping aerosol 2 mg/kg once a day for 4 days): responded normally
animals' responses after stopping treatment (4 weeks after stopping 4 weeks aerosol 2 mg/kg once a day): returned to normal
EAR (peak, largest specific lung resistance 0–4 h) [1]: 4.17 ± 1.70 cmH2O.sec^−1
LAR (peak, largest specific lung resistance 5–8 h) [1]: 1.69 ± 0.21 cmH2O.sec^−1
EAR (peak, largest specific lung resistance 0–4 h) [2]: 4.35 ± 0.74 cmH2O.sec^−1
LAR (peak, largest specific lung resistance 5–8 h) [2]: 2.69 ± 0.26^h cmH2O.sec^−1
EAR (peak, largest specific lung resistance 0–4 h) [3]: 3.95 ± 0.47 cmH2O.sec^−1
LAR (peak, largest specific lung resistance 5–8 h) [3]: 2.22 ± 0.17^h cmH2O.sec^−1
overall protective effect (aerosol 0.6 mg/kg once a day for 4 days): significant protective effects
EAR (peak, largest specific lung resistance 0–4 h) [4]: 3.19 ± 0.51 cmH2O.sec^−1
LAR (peak, largest specific lung resistance 5–8 h) [4]: 1.30 ± 0.18^f cmH2O.sec^−1
effect on early airway response (EAR) [5]: no effect
effect on late airway response (LAR) [5]: blocked
EAR (peak, largest specific lung resistance 0–4 h) [6]: 5.57 ± 1.82 cmH2O.sec^−1
LAR (peak, largest specific lung resistance 5–8 h) [6]: 1.35 ± 0.15^d,e cmH2O.sec^−1
effect on EAR [7]: no effect
effect on LAR [7]: blocked
EAR (peak, largest specific lung resistance 0–4 h) [8]: 3.5 ± 0.73 cmH2O.sec^−1 and 3.53 ± 0.73 cmH2O.sec^−1
LAR (peak, largest specific lung resistance 5–8 h) [8]: 1.34 ± 0.32^d,e cmH2O.sec^−1 and 1.34 ± 0.03^d cmH2O.sec^−1
EAR (peak, largest specific lung resistance 0–4 h) [9]: 4.21 ± 1.68 cmH2O.sec^−1
LAR (peak, largest specific lung resistance 5–8 h) [9]: 0.78 ± 0.39^f cmH2O.sec^−1
EAR (peak, largest specific lung resistance 0–4 h) [10]: 4.21 ± 1.16 cmH2O.sec^−1
LAR (peak, largest specific lung resistance 5–8 h) [10]: 1.22 ± 0.08^d cmH2O.sec^−1
effect on EAR [11]: no effect
effect on LAR [11]: block
effect on EAR [12]: no effect
effect on LAR [12]: blocked
effect on antigen-induced EAR [13]: did not protect
effect on antigen-induced LAR [13]: did not protect
EAR (peak, largest specific lung resistance 0–4 h) (p.o. 1 mg/kg twice a day x 4 d): 4.64 ± 0.55 cmH2O.sec^−1
LAR (peak, largest specific lung resistance 5–8 h) (p.o. 1 mg/kg twice a day x 4 d): 2.27 ± 0.10 cmH2O.sec^−1
